From the Kinase Knowledgebase extract (Sharma et al. 2016)

Molecular target: MAPK14 (UniProt Q16539)
Experiment: p38-alpha Inhibition
Details: for inhibition: concentration not given here

Chain of MAPK14 (Q16539 whole entry, looked up): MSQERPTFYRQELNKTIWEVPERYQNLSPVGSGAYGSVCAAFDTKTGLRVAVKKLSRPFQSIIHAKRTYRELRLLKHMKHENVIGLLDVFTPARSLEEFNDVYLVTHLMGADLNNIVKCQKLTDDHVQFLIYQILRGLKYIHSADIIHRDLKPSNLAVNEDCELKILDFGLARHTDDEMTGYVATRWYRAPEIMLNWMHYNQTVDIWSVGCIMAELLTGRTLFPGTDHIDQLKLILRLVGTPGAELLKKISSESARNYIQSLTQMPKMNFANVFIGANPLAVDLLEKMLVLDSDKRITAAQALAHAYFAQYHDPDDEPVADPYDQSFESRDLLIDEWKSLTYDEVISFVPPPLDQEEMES

Structure (SMILES) | IC50 [nM] | inhibition [%]
Brc1ccccc1-c1nc(Nc2ccncc2)c2ccccc2n1 | 800 | –
COc1cc2nc(-c3ccccc3Cl)nc(Nc3ccncc3)c2cc1OC | – | > 90
c1ccc(-c2nc(NCc3ccncc3)c3ccccc3n2)cc1 | 800 | –
COc1cccc(Nc2nc(-c3ccccc3)nc3ccccc23)c1 | 800 | –
c1ccc(-c2nc(Nc3ccncc3)c3ccccc3n2)cc1 | 800 | –
Nc1ccc2c(Nc3ccncc3)nc(-c3ccccc3F)nc2c1 | – | > 90
Cc1ccccc1-c1nc(Nc2ccncc2)c2ccccc2n1 | 800 | –
Nc1ccc2nc(-c3ccccc3F)nc(Nc3ccncc3)c2c1 | 800 | > 90
Fc1ccccc1-c1nc(Nc2ccncc2)c2ccccc2n1 | 800 | –
O=[N+]([O-])c1ccc2nc(-c3ccccc3F)nc(Nc3ccncc3)c2c1 | – | > 90
CC(C)CNc1ccc2nc(-c3ccccc3F)nc(Nc3ccncc3)c2c1 | – | > 90
Clc1ccccc1-c1nc(Nc2ccncc2)c2ccccc2n1 | 800 | –

The next lines start with the values.

IC50 [nM] | inhibition [%] | Structure (SMILES)
– | > 90 | Nc1ccc2c(Nc3ccncc3)nc(-c3ccc(F)cc3)nc2c1
– | > 90 | COc1ccc(C(=O)Nc2ccc3nc(-c4ccccc4F)nc(Nc4ccncc4)c3c2)cc1
– | > 90 | COc1cccc(CNc2ccc3nc(-c4ccccc4F)nc(Nc4ccncc4)c3c2)c1
800 | – | Fc1ccc(-c2nc(Nc3ccncc3)c3ccccc3n2)cc1
– | > 90 | COc1ccc(CNc2ccc3nc(-c4ccccc4F)nc(Nc4ccncc4)c3c2)cc1
– | > 90 | CSc1ccc(CNc2ccc3nc(-c4ccccc4F)nc(Nc4ccncc4)c3c2)cc1
– | > 90 | COc1cccc(CNc2ccc3c(Nc4ccncc4)nc(-c4ccc(F)cc4)nc3c2)c1
